What all share (test): inhibition of tumour cell growth, NCI panel, 48 h
Test [1] has as its system DMS-114.
In test [2] the test system is XF498.
Test [3] deals with DMS-273.
Test [4] concerns M19-MEL.
The subject of test [5] is KM-20L2.
Test [6] relates to SNB-78.
For test [7], the system named is RXF 631.
The subject of test [8] is DLD-1.
The subject of test [9] is HOP-18.

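1) Cells in 96-well plates. 2) Compound, 48 h, 5 concentrations. 3) Linear interpolation between surrounding doses. 4) Unreached endpoint = highest concentration. GI50 = concentration required for 50% inhibition of growth.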 Activity calls are given as the source filed them. Cut-off read from the data, not from the text of the source: active = GI50 up to about 1.1 µM and inactive = higher.

For the compound `O=C1NC2(C=Cc3c(ccc4ccccc34)O2)Oc2ccccc21` (configuration not stated), the GI50 in test [1] was 13.2 µM (inactive); in [2] it was 19.1 µM (inactive); in test [3] it was 9.51 µM (inactive); in [4], 25.1 µM (inactive); in test [5], 25.8 µM (inactive); in [6], 20.7 µM (inactive).
Regarding `CC1CC2C(=O)N(c3ccccc3)C(=O)C2c2[nH]c3ccccc3c21` (configuration not stated), the GI50 in [7] was 34.3 µM (inactive); in test [1] it was 30.7 µM (inactive); in test [8] it was 89.3 µM (inactive); in test [3], 79.4 µM (inactive); in test [4], 41.5 µM (inactive); in test [6], > 100 µM (inactive).
Consider `O=C1CCC(=O)c2ccccc2N1`, for which the GI50 in test [1], in test [8], in [9], in [2], in [3] and in [4] was > 100 µM (inactive) throughout. Also, the GI50 in [5] is > 100 µM (inactive).
As for `CCc1ccccc1NC(=O)C(=O)C(C(=O)c1ccc(OC)cc1)c1ccc(OC)cc1` (configuration not stated), the GI50 in test [7], in [1], in test [8], in [9], in test [2] and in test [3] was > 100 µM (inactive) each time. In addition, the GI50 in test [5] and in test [6] was > 100 µM (inactive) each time.
For the compound `CCOC(=O)N1CCc2cc(OC)c(OC)c3c2C1CC3=O` (configuration not stated), the GI50 in test [1], in test [8], in test [9], in test [3], in test [4] and in test [5] was > 100 µM (inactive) in each case. Besides, the GI50 in test [6] was > 100 µM (inactive).
Regarding `O=C(NCCCCCCCCNC(=O)c1cnc2ccccc2n1)c1cnc2ccccc2n1`, the GI50 in test [1], in test [8], in [9], in test [2], in test [3] and in test [4] was > 100 µM (inactive) throughout. For the same compound, the GI50 in test [6] was > 100 µM (inactive).
As for `Cc1nc2ccccc2c(=O)n1-c1ccccc1F`, the GI50 in test [1], in test [8], in [9], in test [3], in test [4] and in test [5] was > 100 µM (inactive) each time. The GI50 in test [6] is > 100 µM (inactive).
For the compound `CN(OC(=O)CC(=O)c1ccccc1)C(=O)Cc1ccccc1`, the GI50 in test [7], in test [1], in [8], in [4], in test [5] and in [6] was > 100 µM (inactive) in each case.
Regarding `COC(=O)c1c(CC#N)cccc1CC#N`, the GI50 in test [7], in [1], in test [8], in [2], in test [3] and in [4] was > 100 µM (inactive) in each case. Moreover, the GI50 in test [5] was > 100 µM (inactive).
For the compound `C=C(CO)CC(O)c1cc(OC)ccc1OC` (configuration not stated), the GI50 in test [2], in [3] and in test [4] was > 100 µM (inactive) throughout.
Take `OCCN1CCN2C=C(C3CCCC4N(CCO)CCN34)CCC21` (configuration not stated): the GI50 in [1] is 25.4 µM (inactive); in test [8] it was 22.7 µM (inactive); in test [9], > 100 µM (inactive); in test [2], 48.1 µM (inactive); in test [3], 49.2 µM (inactive); in [4] it was 34.7 µM (inactive). The GI50 in [5] is > 100 µM (inactive); in test [6], 37.9 µM (inactive).
On to `CC(=O)Nc1ccc(S(=O)(=O)NN(C)S(=O)(=O)c2ccc(C)cc2)cc1`, for which the GI50 in test [1], in [8], in [4] and in [5] was > 100 µM (inactive) in each case.
In the case of `Cc1ccc(C)c(NC(=O)CC/C(=N\NC(=O)C(N)=O)C(C)C(=O)c2ccc(O)cc2)c1` (configuration not stated), the GI50 in test [7], in [1], in [8], in test [9], in test [4] and in [5] was > 100 µM (inactive) each time. The GI50 in [6] was > 100 µM (inactive).
As to `C=C(C)CCOC(c1ccccc1)(c1ccccc1)c1ccccc1`, the GI50 was 55.5 µM (inactive) in test [7]; 60.4 µM (inactive) in test [8]; 26.1 µM (inactive) in test [2]; 27.9 µM (inactive) in [4]; 23.5 µM (inactive) in test [5]; 70.1 µM (inactive) in [6].
On to `Cn1nc(-c2ccccc2)c(N=[N+]=[N-])cc1=O`, for which the GI50 in test [1], in test [2], in test [3], in test [4] and in test [5] was > 100 µM (inactive) in each case.
As for `Cc1ccc(S(=O)(=O)N2CCC3(C(/C=C/c4ccccc4)=Nc4ccccc43)C2c2ccccc2)cc1` (configuration not stated), the GI50 in test [1] was > 100 µM (inactive); in [8], > 100 µM (inactive); in test [2], 63.1 µM (inactive); in [3], > 100 µM (inactive); in test [4], > 100 µM (inactive); in test [5] it was > 100 µM (inactive). Also, in test [6], the GI50 was > 100 µM (inactive).
On to `CN(C)c1ccc(/C=C2\Cc3ccccc3C2=O)cc1Br`, for which the GI50 in [1] was 29.6 µM (inactive); in [8], 47.5 µM (inactive); in [2], 26.1 µM (inactive); in [4], 51.1 µM (inactive); in test [5] it was 81.8 µM (inactive); in [6] it was 59.8 µM (inactive).
As to `N#C/C(=C1\OC(=N)C(c2ccc(Cl)cc2)=C1O)c1ccc(Cl)cc1`, the GI50 in test [1] is 14.8 µM (inactive); in test [8], 15.3 µM (inactive); in test [9], 16.9 µM (inactive); in test [3], 13.5 µM (inactive); in test [4] it was 15.1 µM (inactive); in test [5], 18.4 µM (inactive). Also, the GI50 in [6] is 12.8 µM (inactive).
In the case of `COC(=O)OCC1OC(N2C(=O)NC(=O)C(Br)C2N=[N+]=[N-])CC1OC(=O)OC` (configuration not stated), the GI50 in test [1], in test [8], in [2], in test [3], in [4] and in [5] was > 100 µM (inactive) in each case. The GI50 in test [6] is > 100 µM (inactive).
In the case of `COc1ccc2c(c1)[n+]([O-])c(C(=O)C/C(=N/NC(=O)C[N+](C)(C)C)C(=O)Nc1cccc(C)c1C)c(C)[n+]2[O-]`, the GI50 in test [7], in [1], in test [8], in test [9], in test [3] and in test [4] was > 100 µM (inactive) in each case. Besides, the GI50 in [5] and in test [6] was > 100 µM (inactive) in each case.
In the case of `Cn1c(=O)c2c(ncn2CCCCn2ccnc2[N+](=O)[O-])n(C)c1=O`, the GI50 in [1], in [2], in test [3], in test [4], in test [5] and in [6] was > 100 µM (inactive) throughout.
`C=CC(=O)NCCSCCCOC1(C(=O)O)CC(O)C(NC(C)=O)C(C(O)C(O)CO)O1` (configuration not stated): the GI50 in test [1], in test [8], in [2], in test [3] and in test [6] was > 100 µM (inactive) each time.
Consider `CC(=O)OC[C@]1(O)CC[C@@]23CC1C[C@@H]2CCC1C(C)(C)CCC[C@@]13C` (some centres not stated), for which the GI50 in test [7] was 14.2 µM (inactive); in test [1], 11.2 µM (inactive); in test [8], 15.3 µM (inactive); in test [2], 14.1 µM (inactive); in test [3], 3.65 µM (inactive); in test [4], 16 µM (inactive). Further, the GI50 in test [5] was 17.3 µM (inactive); in test [6], 16.1 µM (inactive).
With `CC(=O)NC1C(OCc2ccccc2)OC(CO)C(O)C1OC(C)C(=O)NC(C)C(=O)N[C@@H](CCC(=O)OCCCNC1c2ccccc2Nc2cccc([N+](=O)[O-])c21)C(N)=O` (some centres not stated), the GI50 in test [8] is < 0.01 µM (active); in test [9] it was < 0.01 µM (active); in [3], < 0.01 µM (active); in test [5] it was < 0.01 µM (active); in test [6] it was 0.0121 µM (active).
Turning to `COC(=O)C1[C@@H](C(=O)OC)C(=O)O[C@H]1c1cc(OC)c(OC)c(OC)c1` (some centres not stated), the GI50 in [1], in test [8], in test [9], in test [3], in test [4] and in test [5] was > 100 µM (inactive) throughout. Also, the GI50 in test [6] was > 100 µM (inactive).
As for `CCCCCCCCCCCCCCCCCC[N+](C)(C)Cc1ccc(C[N+](C)(C)CCCCCCCCCCCCCCCCCC)cc1`, the GI50 was 20.9 µM (inactive) in [7]; 9.46 µM (inactive) in [1]; 22.1 µM (inactive) in test [8]; 13 µM (inactive) in test [9]; 16.1 µM (inactive) in test [3]; 16.9 µM (inactive) in [4]. The GI50 in test [5] was 31.3 µM (inactive); in test [6], 18.8 µM (inactive).
Consider `CCCCCCCCCCCCC(O)C1CCC(C(O)CCCCC(O)CCCCCC2CC(CC(C)=O)C(=O)O2)O1` (configuration not stated), for which the GI50 is 3.17 µM (inactive) in test [7]; < 0.01 µM (active) in test [1]; 6.21 µM (inactive) in test [8]; 11.3 µM (inactive) in [9]; 1.82 µM (inactive) in test [2]; 2.21 µM (inactive) in test [3]. In addition, the GI50 in test [4] was 2.45 µM (inactive); in test [5] it was 4.29 µM (inactive); in test [6], 12.5 µM (inactive).

The values above are taken from ChEMBL document CHEMBL1201862, “PubChem BioAssay data set” (2004).
